Experimental findings from PMC3681809 (Cancer cell, 2013) are described below.

The target in the assay is EZH1 (Homo sapiens, UniProt Q92800). Nature of the assay: histone methyltransferase selectivity assay. In kind it is biochemical.

For orientation: Ki means a measure of affinity in units of concentration, obtained from inhibition or displacement. Higher therefore signals a looser hold on the target.

Sequence of EZH1 (Q92800 whole entry): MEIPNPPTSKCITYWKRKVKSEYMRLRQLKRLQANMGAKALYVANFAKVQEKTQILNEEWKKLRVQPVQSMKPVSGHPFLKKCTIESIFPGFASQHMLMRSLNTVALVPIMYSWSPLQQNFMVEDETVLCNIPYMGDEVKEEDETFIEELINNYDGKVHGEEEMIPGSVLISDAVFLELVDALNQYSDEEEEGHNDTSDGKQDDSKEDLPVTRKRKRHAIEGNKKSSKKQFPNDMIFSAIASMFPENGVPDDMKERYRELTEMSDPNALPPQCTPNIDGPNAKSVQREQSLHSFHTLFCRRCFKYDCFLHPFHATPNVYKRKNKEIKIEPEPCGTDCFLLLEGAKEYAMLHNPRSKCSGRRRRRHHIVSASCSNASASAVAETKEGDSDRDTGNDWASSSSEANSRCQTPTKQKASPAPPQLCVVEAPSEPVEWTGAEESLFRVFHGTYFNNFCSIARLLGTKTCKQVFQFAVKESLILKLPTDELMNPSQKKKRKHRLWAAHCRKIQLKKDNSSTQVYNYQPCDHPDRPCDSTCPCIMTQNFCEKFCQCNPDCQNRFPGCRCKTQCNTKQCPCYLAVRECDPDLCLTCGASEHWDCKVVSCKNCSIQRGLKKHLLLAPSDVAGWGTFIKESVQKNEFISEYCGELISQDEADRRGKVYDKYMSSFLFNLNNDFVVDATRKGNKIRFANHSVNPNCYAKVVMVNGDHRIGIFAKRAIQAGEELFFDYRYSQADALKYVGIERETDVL
Sequence of EZH1 (O75530 2-441 partner): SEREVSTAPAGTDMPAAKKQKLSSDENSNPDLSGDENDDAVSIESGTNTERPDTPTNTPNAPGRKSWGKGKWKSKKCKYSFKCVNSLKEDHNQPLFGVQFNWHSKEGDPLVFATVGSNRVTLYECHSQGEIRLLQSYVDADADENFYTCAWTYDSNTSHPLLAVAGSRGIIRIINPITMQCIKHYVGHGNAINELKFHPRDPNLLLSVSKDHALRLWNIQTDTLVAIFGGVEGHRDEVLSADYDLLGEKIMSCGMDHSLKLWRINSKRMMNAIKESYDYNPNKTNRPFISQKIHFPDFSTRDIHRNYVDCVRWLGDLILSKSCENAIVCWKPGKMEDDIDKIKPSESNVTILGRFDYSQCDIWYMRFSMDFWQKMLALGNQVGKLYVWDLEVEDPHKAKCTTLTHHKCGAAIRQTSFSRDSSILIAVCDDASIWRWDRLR
Sequence of EZH1 (Q15022 whole entry partner): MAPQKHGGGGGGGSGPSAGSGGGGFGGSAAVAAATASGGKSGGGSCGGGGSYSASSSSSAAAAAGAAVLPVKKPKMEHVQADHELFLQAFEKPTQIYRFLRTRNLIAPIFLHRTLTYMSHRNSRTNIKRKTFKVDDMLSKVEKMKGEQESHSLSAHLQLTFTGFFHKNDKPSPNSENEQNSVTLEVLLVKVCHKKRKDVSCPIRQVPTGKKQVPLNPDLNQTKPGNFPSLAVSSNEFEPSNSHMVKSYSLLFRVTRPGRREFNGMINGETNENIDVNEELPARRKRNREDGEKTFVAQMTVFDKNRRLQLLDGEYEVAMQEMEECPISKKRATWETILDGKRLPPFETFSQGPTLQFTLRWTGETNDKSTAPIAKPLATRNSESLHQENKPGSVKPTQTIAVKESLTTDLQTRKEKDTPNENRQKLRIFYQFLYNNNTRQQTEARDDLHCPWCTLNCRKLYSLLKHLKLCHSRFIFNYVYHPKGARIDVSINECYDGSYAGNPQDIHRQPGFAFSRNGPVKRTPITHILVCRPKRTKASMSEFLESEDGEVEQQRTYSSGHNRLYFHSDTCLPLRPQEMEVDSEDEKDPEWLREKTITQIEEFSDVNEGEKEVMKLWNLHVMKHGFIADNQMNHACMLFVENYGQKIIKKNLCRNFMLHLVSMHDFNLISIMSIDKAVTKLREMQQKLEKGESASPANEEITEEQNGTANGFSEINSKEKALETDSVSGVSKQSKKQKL

For the compound `Cc1cc(C)c(CNC(=O)c2cc(-c3ccc(N4CCN(C)CC4)nc3)cc3c2c(C)cn3C(C)C)c(=O)[nH]1` [GSK503], the Ki worked out at 636 nM.
